# Measured values taken from the supplement of paper PMC10307832.
# Key:
# Assay in all cases: relative viability (nuclei count vs DMSO), 5 days (fraction); higher = more cells survive
# NCI-H1355 = test system: NCI-H1355
# Summary of the method: (§1)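 Nuclei were stained with Hoechst during a one-step fixation (final 0.05% Triton X-100, 1% formaldehyde, 1 ug/ml Hoechst) carried out 5 days after dosing, then counted on 4× images. The cells, lung cancer lines in 1536-well plates, had been dosed by pin tool the day after seeding with one drug alone or a fixed anchor-drug dose plus five library-drug doses (not always all listed) in √10 steps. Relative viability is the nuclei count in treated wells divided by that in vehicle wells, and each value is the median of duplicate plates.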
# NCI-H322M = test system: NCI-H322M
# Summary of the method: as §1
# NCI-H1651 = test system: NCI-H1651
# Summary of the method: as §1
# NCI-H460 = test system: NCI-H460
# Summary of the method: as §1
# NCI-H441 = test system: NCI-H441
# Summary of the method: as §1
# RERF-LC-KJ = test system: RERF-LC-KJ
# Summary of the method: as §1
# NCI-H727 = test system: NCI-H727
# Summary of the method: as §1
# NCI-H1563 = test system: NCI-H1563
# Summary of the method: as §1
# NCI-H3122 = test system: NCI-H3122
# Summary of the method: as §1
# NCI-H1792 = test system: NCI-H1792
# Summary of the method: as §1
# NCI-H1755 = test system: NCI-H1755
# Summary of the method: as §1
# NCI-H2170 = test system: NCI-H2170
# Summary of the method: as §1
# NCI-H650 = test system: NCI-H650
# Summary of the method: as §1
# NCI-H1915 = test system: NCI-H1915
# Summary of the method: as §1
# NCI-H520 = test system: NCI-H520
# Summary of the method: as §1
# NCI-H2347 = test system: NCI-H2347
# Summary of the method: as §1
# LXF-289 = test system: LXF-289
# Summary of the method: as §1
# LCLC-103H = test system: LCLC-103H
# Summary of the method: as §1
# NCI-H661 = test system: NCI-H661
# Summary of the method: as §1
# PC-14 = test system: PC-14
# Summary of the method: as §1
# SK-MES-1 = test system: SK-MES-1
# Summary of the method: as §1
# NCI-H596 = test system: NCI-H596
# Summary of the method: as §1
structure (smiles),measurement,setting,value
C[C@@H]1CN(CC(=O)Nc2ccc3c(c2)Cc2cccc(-c4cc(=O)cc(N5CCOCC5)o4)c2S3)C[C@H](C)O1 + Cc1nc(NC(=O)N2CCC[C@H]2C(N)=O)sc1-c1ccnc(C(C)(C)C(F)(F)F)c1 [Alpelisib] (partner 2 µM),relative viability,NCI-H1355; first compound 0.04 µM,0.856
same,relative viability,NCI-H1355; first compound 0.1265 µM,0.759
same,relative viability,NCI-H1355; first compound 0.4 µM,0.862
same,relative viability,NCI-H1355; first compound 4 µM,0.827
same,relative viability,NCI-H322M; first compound 0.04 µM,0.844
same,relative viability,NCI-H322M; first compound 0.1265 µM,0.833
same,relative viability,NCI-H322M; first compound 0.4 µM,0.832
same,relative viability,NCI-H322M; first compound 4 µM,0.839
same,relative viability,NCI-H1651; first compound 0.04 µM,0.953
same,relative viability,NCI-H1651; first compound 0.1265 µM,0.923
same,relative viability,NCI-H1651; first compound 0.4 µM,0.881
same,relative viability,NCI-H1651; first compound 4 µM,1.06
same,relative viability,NCI-H460; first compound 0.04 µM,0.517
same,relative viability,NCI-H460; first compound 0.1265 µM,0.416
same,relative viability,NCI-H460; first compound 0.4 µM,0.355
same,relative viability,NCI-H460; first compound 4 µM,0.265
same,relative viability,NCI-H441; first compound 0.04 µM,0.942
same,relative viability,NCI-H441; first compound 0.4 µM,0.675
same,relative viability,NCI-H441; first compound 4 µM,0.584
same,relative viability,RERF-LC-KJ; first compound 0.04 µM,0.869
same,relative viability,RERF-LC-KJ; first compound 0.1265 µM,0.764
same,relative viability,RERF-LC-KJ; first compound 0.4 µM,0.774
same,relative viability,RERF-LC-KJ; first compound 4 µM,0.792
same,relative viability,NCI-H727; first compound 0.04 µM,0.685
same,relative viability,NCI-H727; first compound 0.1265 µM,0.612
same,relative viability,NCI-H727; first compound 0.4 µM,0.502
same,relative viability,NCI-H727; first compound 4 µM,0.479
same,relative viability,NCI-H1563; first compound 0.04 µM,0.942
same,relative viability,NCI-H1563; first compound 0.1265 µM,0.918
same,relative viability,NCI-H1563; first compound 0.4 µM,0.748
same,relative viability,NCI-H1563; first compound 4 µM,0.753
same,relative viability,NCI-H3122; first compound 0.04 µM,0.861
same,relative viability,NCI-H3122; first compound 0.1265 µM,0.682
same,relative viability,NCI-H3122; first compound 0.4 µM,0.629
same,relative viability,NCI-H3122; first compound 4 µM,0.699
same,relative viability,NCI-H1792; first compound 0.04 µM,0.685
same,relative viability,NCI-H1792; first compound 0.1265 µM,0.677
same,relative viability,NCI-H1792; first compound 0.4 µM,0.707
same,relative viability,NCI-H1792; first compound 4 µM,0.665
same,relative viability,NCI-H1755; first compound 0.04 µM,0.934
same,relative viability,NCI-H1755; first compound 0.1265 µM,0.88
same,relative viability,NCI-H1755; first compound 0.4 µM,0.845
same,relative viability,NCI-H1755; first compound 4 µM,0.863
same,relative viability,NCI-H2170; first compound 0.1265 µM,0.761
same,relative viability,NCI-H2170; first compound 0.4 µM,0.727
same,relative viability,NCI-H2170; first compound 4 µM,0.751
same,relative viability,NCI-H650; first compound 0.04 µM,0.949
same,relative viability,NCI-H650; first compound 0.1265 µM,1.06
same,relative viability,NCI-H650; first compound 0.4 µM,1.15
same,relative viability,NCI-H650; first compound 4 µM,0.895
same,relative viability,NCI-H1915; first compound 0.04 µM,1.02
same,relative viability,NCI-H1915; first compound 0.1265 µM,1.08
same,relative viability,NCI-H1915; first compound 0.4 µM,1.1
same,relative viability,NCI-H1915; first compound 4 µM,1.04
same,relative viability,NCI-H520; first compound 0.04 µM,0.974
same,relative viability,NCI-H520; first compound 0.1265 µM,0.917
same,relative viability,NCI-H520; first compound 0.4 µM,0.535
same,relative viability,NCI-H520; first compound 4 µM,0.854
same,relative viability,NCI-H2347; first compound 0.04 µM,0.981
same,relative viability,NCI-H2347; first compound 0.1265 µM,1.09
same,relative viability,NCI-H2347; first compound 0.4 µM,1.08
same,relative viability,NCI-H2347; first compound 4 µM,0.979
same,relative viability,LXF-289; first compound 0.04 µM,1.04
same,relative viability,LXF-289; first compound 0.1265 µM,1
same,relative viability,LXF-289; first compound 0.4 µM,0.996
same,relative viability,LXF-289; first compound 4 µM,1.02
same,relative viability,LCLC-103H; first compound 0.04 µM,1.02
same,relative viability,LCLC-103H; first compound 0.1265 µM,0.892
same,relative viability,LCLC-103H; first compound 0.4 µM,0.845
same,relative viability,LCLC-103H; first compound 4 µM,1.02
same,relative viability,NCI-H661; first compound 0.1265 µM,0.741
same,relative viability,NCI-H661; first compound 0.4 µM,0.526
same,relative viability,NCI-H661; first compound 4 µM,0.489
same,relative viability,PC-14; first compound 0.04 µM,0.961
same,relative viability,PC-14; first compound 0.1265 µM,0.986
same,relative viability,PC-14; first compound 0.4 µM,0.9
same,relative viability,PC-14; first compound 4 µM,0.855
same,relative viability,SK-MES-1; first compound 0.04 µM,0.927
same,relative viability,SK-MES-1; first compound 0.1265 µM,0.826
same,relative viability,SK-MES-1; first compound 0.4 µM,1.02
same,relative viability,SK-MES-1; first compound 4 µM,0.813
same,relative viability,NCI-H596; first compound 0.04 µM,0.513
same,relative viability,NCI-H596; first compound 0.1265 µM,0.451
same,relative viability,NCI-H596; first compound 0.4 µM,0.384
same,relative viability,NCI-H596; first compound 4 µM,0.428
